“Also recorded” adds a separate entry of the source.
Key:
Assay type in all cases: cell-based
[1] = system: human RTT neurons; experiment: Membrane capacitance (Cm) of cultured human RTT neurons; settings: for increase of neuronal Cm: RTT neurons transfected with KCC2 shRNA; for membrane capacitance (Cm): cultured human RTT neurons, vs DMSO or MeBIO control
Text: (§1) Moreover, a reduction in the number or the strength of excitatory glutamatergic synapses in RTT neurons has been observed in postmortem RTT patient brain samples (30), mouse models of RTT (53), and human stem cell-derived RTT neurons (54). Electrophysiology recording was utilized to assess whether KEECs could rescue the deficits in EGABA and excitatory synaptic transmission of RTT neurons. […] We further investigated whether the beneficial effect of KEECs is a direct result of the increases in neuronal KCC2 gene expression. […] Deficits in a number of morphological measurements, including nuclei size and neurite complexity and branching, are hallmarks of RTT neurons (54-56). […] To validate the morphological measurements, electrophysiological measurements of the neuronal membrane capacitance (Cm), an indicator of neuronal cell size (57) that is reduced in RTT neurons, were conducted.
(§2) Functionally mature human neuron cultures were obtained by seeding human WT or isogenic RTT NPCs on a layer of primary mouse astrocyte culture as previously described (57). In the cultured WT human neurons, KCC2 expression reaches mature level between 2-3 months (7). We therefore treated the WT or RTT human neurons 8-12 weeks in culture, with compounds for a duration of two weeks before conducting whole-cell patch-clamp recording. The extracellular bath solution, that perfused the recording chamber, consists of (in mM): 120 NaCl, 30 glucose, 25 HEPES, 5 KCl, 2 CaCl2, 1 MgCl2. The pH was adjusted to 7.3 with NaOH. The high-chloride internal pipette solution consists of (in mM): 147 KCl, 5 Na-phosphocreatine, 2 EGTA, 10 HEPES, 4 MgATP, and 0.5 Na2GTP; the pH 7.3 was adjusted with KOH. To record mini EPSC, the membrane potential was held at −70 mV, and 0.5 μM of TTX and 50 μM Picrotoxin were applied with bath solution to block action potential and GABAergic synaptic transmission.

[2] = system: immature mouse neurons; experiment: Resting membrane potential and membrane capacitance of DIV6 immature mouse neurons
[3] = system: human RTT neurons; experiment: mEPSC whole-cell patch-clamp recording in cultured human RTT neurons; settings: for mEPSC frequency enhancement: RTT neurons with KCC2 shRNA transfection; for frequency of mEPSCs / mEPSC amplitude: cultured human RTT neurons; for mEPSC amplitude: vs DMSO control
Text: as §1, §2
To evoke GABA response, a pipette filled with 100 μM GABA solution was positioned 5-10 μm away from the neuronal cell body. Air pulses at the pressure of 10 p.s.i. and duration of 100 ms were generated with a Picrospritzer (Parker Instrumentation) to puff GABA solution onto neuronal cell body. Neuronal response to GABA puffs were recorded at different membrane holding potentials from −90 mV to +30 mV, and the EGABA values were calculated with linear regression. Electrophysiological signals were recorded with Multiclamp 700A patch-clamp amplifier and data were collected with Clamp 9 software (Molecular Devices, Palo Alto, CA), sampled at 10 kHz and filtered at 1 KHz. Off-line data analyses of mEPSC synaptic events were performed with MiniAnalysis software (Synaptosoft, Decator, GA). All experiments were performed at room temperature. A sample size of 5-8 neurons was used for EGABA measurements, while a sample size of 14-19 neurons was used for mEPSC measurements. All data were presented as mean±SEM. ANOVA test followed by the Bonferroni correction were used for statistical analysis. The Kolmogorov-Smirnov test was employed to compare the cumulative distribution between two datasets.

[4] = system: KCC2 expression; experiment: Western blot of KCC2 in organotypic mouse brain slices; settings: organotypic neonatal mouse brain slices, treated 7 days, vs DMSO, MeBIO or medium-only control
[5] = system: KCC2 expression; experiment: Western blot of KCC2 in cultured human RTT neurons; settings: Western blot; for concentration at which treatment significantly increases KCC2 expression: cultured ESC-derived human RTT neurons; for KCC2 expression: cultured human RTT neurons
Summary of the method: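 Cultured neurons lysed in RIPA buffer (pH 7.6) with sonication; immunoblotted on PVDF with KCC2 antibody (1:2000) overnight at 4° C., HRP secondary.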

O=C(c1ccc(/C=C/c2n[nH]c3ccccc23)cc1)N1CCNCC1 [KW-2449, (E)-(4-(2-(1H-indazol-3-yl)vinyl)phenyl)(piperazin-1-yl)methanone]
increase of neuronal Cm [1]: abolished the capability | membrane capacitance (Cm) [1]: significantly higher Cm, at levels comparable to isogenic WT human neurons | resting membrane potential [2]: does not significantly alter the resting membrane potential | membrane capacitance ([2]; vs DMSO control): significantly increase the membrane capacitance | mEPSC frequency enhancement [3]: abolished the effect | frequency of mEPSCs [3]: significantly increased the frequency of mEPSCs to levels equivalent to WT control | mEPSC amplitude [3]: significantly increased mEPSC amplitude | KCC2 protein level [4]: enhanced KCC2 expression levels | concentration at which treatment significantly increases KCC2 expression [5]: 0.1 µM | KCC2 expression [5]: increase KCC2 expression; also recorded: significant enhancement of KCC2 expression

O=C1Nc2cc(Br)ccc2/C1=C1/Nc2ccccc2/C1=N\O [BIO, (2Z,3E)-6′-bromo-3-(hydroxyimino)-[2,3′-biindolinylidene]-2′-one]
increase of neuronal Cm [1]: abolished the capability | membrane capacitance (Cm) [1]: significantly higher Cm, at levels comparable to isogenic WT human neurons | resting membrane potential [2]: does not significantly alter the resting membrane potential | mEPSC frequency enhancement [3]: abolished the effect | frequency of mEPSCs [3]: significantly increased the frequency of mEPSCs to levels equivalent to WT control | mEPSC amplitude [3]: significantly increased mEPSC amplitude | KCC2 protein level [4]: enhanced KCC2 expression levels | concentration at which treatment significantly increases KCC2 expression [5]: 0.3 µM | KCC2 expression [5]: increased KCC2 expression levels significantly | KCC2 expression ([5]; listed as KIN 001-043): increase KCC2 expression
